Assay [1] has as its target T1, neuronal nicotinic acetylcholine receptors (Rattus norvegicus, UniProt P09483+P12390).
T1 construct: crude synaptic membrane preparations from whole rat brain; from tissue; host or cells: whole rat brain, crude synaptic membranes
Kind of assay: Binding of [3H]-cytisine to neuronal nicotinic acetylcholine receptors, crude synaptic membranes from whole rat brain. The method, then:
The In Vitro protocols for determination of nicotinic acetylcholine channel receptor binding potencies of ligands were determined as follows.
Washed membranes were stored at −80° C. prior to use. Frozen aliquots were slowly thawed and resuspended in 20 volumes of buffer (containing: 120 mM NaCl, 5 mM KCl, 2 mM MgCl2, 2 mM CaCl2 and 50 mM Tris-Cl, pH 7.4 @[…]). After centrifuging at 20,000×g for 15 minutes, the pellets were resuspended in 30 volumes of buffer.
The test compounds were dissolved in water to make 10 mM stock solutions. Each solution was then diluted (1:100) with buffer (as above) and further taken through seven serial log dilutions to produce test solutions from 10^−5 to 10^−11 M.
Samples were incubated for 60 minutes at 4° C., then rapidly filtered through Whatman GF/B filters presoaked in 0.5% polyethyleneimine using 3×4 mL of ice-cold buffer. The filters are counted in 4 mL of Ecolume® (ICN). Nonspecific binding was determined in the presence of 10 μM (−)-nicotine and values were expressed as a percentage of total binding. IC50 values were determined with the RS-1 (BBN) nonlinear least squares curve-fitting program and IC50 values were converted to Ki values using the Cheng and Prusoff correction (Ki=IC50/(1+[ligand]/Kd of ligand).

The subject of assay [2] is Male Sprague-Dawley rats. Kind of assay: Formalin test (analgesia). The assay is classed as in vivo. Conditions: Rattus norvegicus, ip, intraperitoneally 5 minutes before injection of 50 μL 5% formalin into rear paw, nocifensive behaviors, read-out: (MED) minimally effective dose, formalin test. How it is done:
Another in vivo protocol utilized to determine the effectiveness of nicotinic acetylcholine receptor ligands as analgesic agents was the formalin test.
Male Sprague-Dawley rats (Charles River, Portage, Mich.) weighing 200 to 400 grams were used for all experiments. After a 20 minute period of acclimation to individual cages, 50 μL of a 5% formalin solution was injected subcutaneous into the dorsal aspect of one of the rear paws and the rats were then returned to the clear observation cages suspended above mirror panels. […] Phase 1 of the formalin test was defined as the period of time immediately after injection of formalin until 10 minutes after the formalin injection (i.e., 0-10 minutes after formalin). Phase 2 was defined as the 20 minute period from 30 to 50 minutes after formalin injection. The investigator recorded nocifensive behaviors in the injected paw of four animals during the session by observing each animal for one 15 second observation period during each 1 minute interval. Nocifensive behaviors recorded included flinching, licking or biting the injected paw. In dose-response studies, the test compound (or saline) was administered intraperitoneally 5 minutes before injection of formalin.

Where a name gives a salt, the structure may show the parent alone. Read-outs that look alike come from different tables or passages of the source.

T1 sequence (P09483 31-630): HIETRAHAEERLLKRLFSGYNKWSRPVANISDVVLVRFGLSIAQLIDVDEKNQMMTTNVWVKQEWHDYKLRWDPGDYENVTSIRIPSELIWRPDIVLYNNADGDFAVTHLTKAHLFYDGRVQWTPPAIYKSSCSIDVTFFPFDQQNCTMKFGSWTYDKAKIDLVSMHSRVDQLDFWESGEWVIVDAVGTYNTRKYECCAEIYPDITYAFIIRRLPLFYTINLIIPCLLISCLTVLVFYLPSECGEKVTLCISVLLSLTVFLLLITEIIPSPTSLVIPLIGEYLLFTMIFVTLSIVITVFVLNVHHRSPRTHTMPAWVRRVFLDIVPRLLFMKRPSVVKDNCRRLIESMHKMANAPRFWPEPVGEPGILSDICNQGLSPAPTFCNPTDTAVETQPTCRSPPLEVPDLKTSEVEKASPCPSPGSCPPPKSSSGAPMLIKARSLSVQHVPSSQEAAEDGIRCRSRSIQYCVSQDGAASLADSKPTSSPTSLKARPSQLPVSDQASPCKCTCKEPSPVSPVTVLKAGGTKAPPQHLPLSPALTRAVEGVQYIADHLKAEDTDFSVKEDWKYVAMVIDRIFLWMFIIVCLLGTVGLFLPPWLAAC
T1 sequence (P12390 25-500): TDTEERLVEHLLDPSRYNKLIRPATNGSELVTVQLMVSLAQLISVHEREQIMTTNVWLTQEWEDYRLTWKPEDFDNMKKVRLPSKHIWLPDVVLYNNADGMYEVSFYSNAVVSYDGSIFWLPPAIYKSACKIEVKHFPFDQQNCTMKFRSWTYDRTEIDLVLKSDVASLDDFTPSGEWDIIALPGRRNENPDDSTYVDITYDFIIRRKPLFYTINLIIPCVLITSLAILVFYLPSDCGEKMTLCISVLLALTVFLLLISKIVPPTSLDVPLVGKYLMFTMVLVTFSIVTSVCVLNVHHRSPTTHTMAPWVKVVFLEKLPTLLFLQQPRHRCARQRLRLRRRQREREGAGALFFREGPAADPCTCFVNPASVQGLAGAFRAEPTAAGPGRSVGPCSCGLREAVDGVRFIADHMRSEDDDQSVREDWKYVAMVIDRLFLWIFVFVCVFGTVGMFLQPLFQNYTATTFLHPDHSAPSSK

In general, Ki refers to a measure of affinity in units of concentration, obtained from inhibition or displacement. As to `Clc1ccc(N2C[C@@H]3CNC[C@@H]32)cn1` [Example 54, (1S,5R)-6-(6-chloro-3-pyridinyl)-3,6-diazabicyclo[3.2.0]heptane fumarate], the Ki in assay [1] was 1300 pM. In addition, the minimal effective dose in assay [2] was 1.9 µmol/kg.

Consider `N#Cc1cncc(N2C[C@H]3CNC[C@H]32)c1` [Example 74, 5-[(1R,5S)-3,6-diazabicyclo[3.2.0]hept-6-yl]nicotinonitrile bis(4-methylbenzenesulfonate)], for which the inhibition constant Ki in assay [1] is 3200 pM. Moreover, in assay [2], the minimal effective dose came to 1.9 µmol/kg.

Compound `c1cncc(N2C[C@@H]3CN[C@@H]3C2)c1` (relative stereo) [Example 38, (cis)-3-(3-pyridinyl)-3,6-diazabicyclo[3.2.0]heptane bis(4-methylbenzenesulfonate)] came in with an inhibition constant Ki in assay [1] of 160 pM. Besides, the minimal effective dose in assay [2] is over 6.2 µmol/kg.

Consider `OCc1cc(N2C[C@H]3CCN[C@H]3C2)cnc1Br` [Example 64, [5-((3aR,6aR)-hexahydropyrrolo[3,4-b]pyrrol-5(1H)-yl)-2-bromo-3-pyridinyl]methanol fumarate], for which the affinity in assay [1] corresponds to a Ki of 1100 pM. For the same compound, in assay [2], the minimal effective dose was over 19 µmol/kg.

In assay [1], `C#Cc1cncc(N2C[C@H]3CCN[C@H]3C2)c1` [Example 35, (3aR,6aR)-5-(5-ethynyl-3-pyridinyl)octahydropyrrolo[3,4-b]pyrrole hydrochloride dihydrochloride] showed a Ki of 130 pM. Further, in assay [2], the minimal effective dose was found to be 1.9 µmol/kg.

As for `c1cncc(N2C[C@@H]3CNC[C@@H]32)c1` [Example 55, (1S,5R)-6-(3-pyridinyl)-3,6-diazabicyclo[3.2.0]heptane fumarate], the Ki in assay [1] was 720 pM. Besides, in assay [2], the minimal effective dose is over 19 µmol/kg.

In assay [1], `COc1cc(N2C[C@H]3CCN[C@H]3C2)cnc1Br` [Example 43, (3aR,6aR)-5-(6-bromo-5-methoxy-3-pyridinyl)octahydropyrrolo[3,4-b]pyrrole] registered a Ki of 300 pM. Further, the minimal effective dose in assay [2] stood at 6.2 µmol/kg.

For the compound `Brc1cncc(N2C[C@H]3CCN[C@H]3C2)c1` [Example 36, (3aR,6aR)-5-(5-bromo-3-pyridinyl)octahydropyrrolo[3,4-b]pyrrole dihydrochloride], the Ki in assay [1] stood at 170 pM. Also, in assay [2], the minimal effective dose was 6.2 µmol/kg.

Compound `C=Cc1cncc(N2C[C@H]3CCN[C@H]3C2)c1` [Example 56, (3aR,6aR)-5-(5-vinyl-3-pyridinyl)octahydropyrrolo[3,4-b]pyrrole dihydrochloride] had a Ki in assay [1] of 620 pM. In addition, the minimal effective dose in assay [2] turned out to be 1.9 µmol/kg.

`COCc1cc(N2C[C@H]3CCN[C@H]3C2)cnc1Br` [Example 67, (3aR,6aR)-5-[6-bromo-5-(methoxymethyl)-3-pyridinyl]octahydropyrrolo[3,4-b]pyrrole fumarate]: the Ki in assay [1] was 1000 pM. In assay [2], the minimal effective dose was found to be 19 µmol/kg.

As for `Clc1ccc(N2C[C@H]3CCNC[C@H]32)cn1` [Example 47, (1S,6R)-8-(6-chloro-3-pyridinyl)-3,8-diazabicyclo[4.2.0]octane difumarate], in assay [1] ([3H]-CYT 1.25 nM, whole rat brain membranes, 60 minutes at 4° C., IC50 converted to Ki by Cheng and Prusoff correction, read-out: Average Ki), the Ki came to 800 pM. In addition, the minimal effective dose in assay [2] is 1.9 µmol/kg.

As for `Brc1cncc(N2C[C@@H]3CNC[C@@H]32)c1` [Example 71, (1S,5R)-6-(5-bromo-3-pyridinyl)-3,6-diazabicyclo[3.2.0]heptane], the Ki in assay [1] was 1500 pM. Moreover, in assay [2], the minimal effective dose was over 19 µmol/kg.

Take `Clc1ccc(N2C[C@@H]3CN[C@@H]3C2)cn1` (relative stereo) [Example 41, (cis)-3-(6-chloro-3-pyridinyl)-3,6-diazabicyclo[3.2.0]heptane fumarate]: the Ki in assay [1] is 1900 pM. Further, in assay [2], the minimal effective dose is over 1.9 µmol/kg.

For `COc1cncc(N2C[C@H]3CNC[C@H]32)c1` [Example 86, (1R,5S)-6-(5-methoxy-3-pyridinyl)-3,6-diazabicyclo[3.2.0]heptane 4-methylbenzenesulfonate], the Ki in assay [1] is 750 pM. The minimal effective dose in assay [2] is over 19 µmol/kg.

The values are drawn from patent US8119635B2, “Diazabicyclic central nervous system active agents” (Abbott Laboratories, priority 2000, dated 2012).
